# Reference: publication PMC11997985, “Synthesis and In Vitro Profiling of Psilocin Derivatives: Improved Stability and Synthetic Properties” (Journal of Medicinal Chemistry, 2025)
# Values joined by “and” are separate entries in the source; they are usually repeats but may differ in a detail not shown here. Identical values can stand only once. “Also recorded” adds a separate entry of the source. Marks after values point to notes of the source that are not given here.
# Key:
# [1] = Co-factor experiment: microsome suspension with and without NADPH; assay type: in vitro ADME, human; settings: degradation with and without addition of NADPH compared
# Protocol: Therefore, additional experiments comparing stability with and without the addition of NADPH cofactor and a very short incubation period were performed (Tables S4 and S5). […] Due to the rapid observed degradation in microsomes, we decided to investigate the stability of five compounds in human plasma, aiming for a broad range of stabilities (Table 2, Table S6). It should be noted that esterase-labile compounds are notoriously difficult to study in microsomal stability studies.[36]
# Table S3 Evaluation of metabolic stability in human microsomes
# No. Metabolic stability Comment
# 4k <10/<10 Low retention in chromatography
# 8 <10/<10 Low retention in chromatography.
# Table S4 Results from the modified microsome assay where degradation with and without the addition of NADPH was compared […]
# 4d Very low peak area for the first time point,
# 4e Very low peak area for the first time point,
# 4f Very low peak area for the first time point,
# 5 Very low peak area for the first time point,
# 8 No degradation without co -factor […]
# metabolism by the microsomes (consisting mainly of cytochrome P450 enzymes) or if it was due to other factors, the compounds (with the exception of 4k) were incubated in the microsome suspension both with and without the addition of NADPH. Samples […]
# (§1) were taken at three timepoints, and the degradation was compared to determine if it was dependent on NADPH. Compound 4k […]
# (§2) without the addition of NADPH. […]
# (§3) microsomes that need to be activated by a co -factor.
# (§4) Table S5 Percent of peak area found in microsome suspension 15 seconds after the addition of NADPH in comparison with the same amount dissolved in H2O/EtOH
# (§5) No. Area at 0.25 min. in Area in solution % found in microsomes/NADPH (125 nM) microsome
# (§6) Comparison with compounds in solution. A comparison was made between the peak area of the compounds in solution with that obtained in the microsome suspension directly after the addition of NADPH (about 0.25 minutes) (Table S5). Before the addition of NADPH, the compounds are equilibrated in the microsome suspension for approximately five minutes. All compounds were prepared in solution by diluting a portion of the DMSO solutions with H2O/EtOH (75:25) to 125 nM (the final concentration of compounds for analysis in the microsome assay).
# (§7) For the compounds where no results from the microsome assay could be reported due to low peak area (4d, 4e, 4f & 5), less than one percent of the expected peak area as compared with the area in solution was detected. […]
# (§8) degrade rapidly before the addition of the co-factor after five minutes in incubation. For compounds 4g, 4h, 4i & 4j, which were […]
# (§9) higher relative peak areas were found. […]
# (§10) without NADPH was only found at 15% of the area seen in solution in the microsome suspension.
# [2] = Stability in simulated stomach acid (0.10 M HCl); settings: 0.10 M HCl (simulated stomach acid)
# [3] = Solubility, screen method, phosphate buffer pH 7.4, 1% DMSO; assay type: physicochemical; settings: phosphate buffer with 1% DMSO; 100 mM phosphate buffer pH 7.4, 1% DMSO; assay range 0.1 to 100 μM
# [4] = Metabolic stability in human microsomes; assay type: in vitro ADME; settings: for Metabolic stability in human microsomes: 37 °C, 0.5 mg/mL protein, 1 μM compound, 1 mM NADPH; for Comment on microsome assay: Table S3
# [5] = Chemical stability in 1.0 M NaHCO3 and 1.0 M HCl
# [6] = Peak area in microsome suspension compared with compounds in solution; assay type: in vitro ADME, human; settings: peak area 15 seconds after addition of NADPH versus same amount (125 nM) in H2O/EtOH
# Protocol: as §1, §2, §3, §4, §5, §6, §7, §8, §9, §10
# [7] = system: porcine liver esterase; experiment: Stability in FaSSIF supplemented with esterase
# [8] = Photolytic degradation of psilocin salts; settings: for % psilocin remaining: after 14 days
# [9] = General observations of psilocin salts in solid form in −18 °C freezer; settings: for stability (solid form): over 3 weeks in −18 °C freezer, visual inspection and LCMS; for hygroscopic: visual inspection
# [10] = Forced degradation of psilocin salts, oxidative (0.30% H2O2)
# [11] = Forced degradation of psilocin salts, base (0.10 M NaOH); settings: for half-life at 24 h, 2 mg/mL freebase psilocin: 0.10 M NaOH (base forced degradation)
# [12] = Forced degradation of psilocin salts, acid (1.0 M HCl); settings: for half-life at 2 mg/mL freebase psilocin: 1.0 M HCl (acid forced degradation); for % psilocin remaining: after 24 h compared with first measuring point at 1 h, LCMS; for color: visual inspection after 24 h
# [13] = Thermal degradation of psilocin salts at 60 °C; settings: for % psilocin remaining: after 6 days (143 h)
# [14] = 0.30% H2O2 (oxidative forced degradation), half-life, 0.30% H2O2, RT
# [15] = 0.30% H2O2 (oxidative forced degradation), half-life, 0.30% H2O2
SMILES,half-life at 5 mM [2] [h],solubility [3] [µM],Metabolic stability in human microsomes [4],"half-life at 336 h, 2 mg/mL freebase psilocin [8] [h]",% psilocin remaining ([8]; 12900 lx) [%],stability (solid form) [9],hygroscopic [9],"half-life at 2 mg/mL freebase psilocin [10, 14] [h]","% psilocin remaining ([10]; 0.30% H2O2, after 24 h) [%]","half-life at 24 h, 2 mg/mL freebase psilocin [11] [h]","% psilocin remaining ([11]; 0.10 M NaOH, after 24 h) [%]",half-life at 2 mg/mL freebase psilocin [12] [h],% psilocin remaining ([12]; 1.0 M HCl) [%],"color ([12]; 1.0 M HCl, RT)",% psilocin remaining [13] [%],half-life at 2 mg/mL freebase psilocin [13] [h],"half-life at 144 h, 2 mg/mL freebase psilocin [13] [h]",further results
CCCC(=O)Oc1cccc2[nH]cc(CCN(C)C)c12.O=C(O)/C=C/C(=O)O [Compound 4b],> 167,87,>200^a μL/min/mg protein and >200 μL/min/mg protein,–,–,–,–,–,–,–,–,–,–,–,–,–,–,"Co-factor experiment [1]: No degradation without co-factor; Comment on microsome assay [4]: Rapid degradation; half-life at 24 h, 5 mM ([5]; 1.0 M HCl): 15 h; half-life at 24 h, 5 mM ([5]; 1.0 M NaHCO3): 65 h; % found in microsome suspension [6]: 0.3%"
CC(C)COC(=O)Oc1cccc2[nH]cc(CCN(C)C)c12.O=CO [Compound 4d],> 167,> 90,>200^a μL/min/mg protein and >200 μL/min/mg protein,–,–,–,–,–,–,–,–,–,–,–,–,–,–,"Co-factor experiment [1]: Very low peak area for the first time point, instability suspected; degradation rate among prodrugs ([7]; FaSSIF, 20 IU/mL esterase): fastest degradation; % prodrug remaining, measured after 1 min ([7]; after 1 min at 20 IU/mL): 7%; predicted half-life ([7]; at 270 IU/mL): 1.2 s; predicted abs. ([7]; calculated remaining prodrug available for GI absorption, predicted level after 5 min at 270 IU/mL (% remaining prodrug)): 7.0 × 10^–77; half-life at 0.292 mM ([7]; pig, FaSSIF supplemented with porcine liver esterase (20 IU/mL)): 15.6 ± 1.2 s; Comment on microsome assay [4]: Rapid degradation; half-life at 5 mM ([5]; 1.0 M HCl): > 167 h; half-life at 24 h, 5 mM ([5]; 1.0 M NaHCO3): 36.7 h"
CN(C)CCc1c[nH]c2cccc(OC(=O)N3CCCCC3)c12.O=C(O)/C=C/C(=O)O [Compound 4k],> 167,> 90,<10/<10^b μL/min/mg protein and <10 μL/min/mg protein,–,–,–,–,–,–,–,–,–,–,–,–,–,–,half-life at 5 mM ([5]; 1.0 M HCl): > 167 h; half-life at 5 mM ([5]; 1.0 M NaHCO3): > 167 h; % found in microsome suspension [6]: 79%
CN(C)CCc1c[nH]c2cccc(O)c12.Cl [Compound 9a],–,–,–,333,51,degrading during storage after only 3 days; also recorded: not very stable,highly hygroscopic and yes,> 167,100,8.33,0,> 167,100,clear,0,< 48,50,–
CN(C)CCc1c[nH]c2cccc(O)c12.OB(O)O [Compound 9b],–,–,–,–,0,stable enough to store as a solid in the freezer for an extended period; also recorded: no change,no,–,0,–,0,–,93,clear,0,–,–,"half-life ([8]; 12900 lx, RT): <1000 ^b min; time to complete breakdown ([8]; 12900 lx, RT): ≤ 1 week; color (24 h) ([8]; 12900 lx, RT, water:acetonitrile 1:1): black; control sample stored in darkness ([8]; in air at RT for a week, dissolved salt): entirely degraded; time to complete degradation ([10]; 0.30% H2O2): ≤ 3 h; half-life ([10]; 0.30% H2O2, RT): <1 h; color ([10]; 0.30% H2O2, after 24 h, RT): brown; half-life ([11]; 0.10 M NaOH, RT): 6.67 h; color ([11]; 0.10 M NaOH, after 24 h, RT): black; half-life ([12]; 1.0 M HCl, RT): >10,000 min; half-life [13]: <11.7 h; time to complete degradation [13]: ≤ 24 h; color (24 h) ([13]; water:acetonitrile 1:1): black"
CN(C)CCc1c[nH]c2cccc(O)c12.O=C(O)c1ccccc1 [Compound 9c],–,–,–,150,0,stable enough to store as a solid in the freezer for an extended period; also recorded: no change,no,> 167,94,8.33,0,> 167,100,clear,0,< 48,33.3,"time to complete breakdown ([8]; 12900 lx, RT): ≤ 1 week"
CN(C)CCc1c[nH]c2cccc(O)c12.O=P(O)(O)O [Compound 9e],–,–,–,333,33,darkens after 1 week,no,–,83,5,0,> 167,94,clear,0,–,66.7,"half-life at 2 mg/mL freebase psilocin [10, 15]: > 24 h; half-life at 24 h, 2 mg/mL freebase psilocin [10, 14]: 13.3 h"
CN(C)CCc1c[nH]c2cccc(O)c12.O=C(O)C(F)(F)F [Compound 9f],–,–,–,167,22,degrades within 3 days,highly hygroscopic and yes,33.3,78,15,0,> 167,99,clear,0,< 48,–,"half-life at 2 mg/mL freebase psilocin [10, 15]: > 24 h"
